The source made the active and inactive calls. No cut-off for these calls is given here.
Tests used:
RBL-2H3 [1] = test: Inhibition of ERK in DNP-BSA-stimulated rat RBL2H3 cells assessed as reduction in cPLA2 phosphorylation by Western blotting; format: cell-based
[2] = target: T1, 1-phosphatidylinositol 4,5-bisphosphate phosphodiesterase gamma-2 (Rattus norvegicus) (UniProt P24135); test: Inhibition of PLCgamma2 phosphorylation in DNP-BSA-stimulated rat RBL2H3 cells by Western blotting; format: cell-based; conditions: RBL-2H3
T1 sequence (whole entry): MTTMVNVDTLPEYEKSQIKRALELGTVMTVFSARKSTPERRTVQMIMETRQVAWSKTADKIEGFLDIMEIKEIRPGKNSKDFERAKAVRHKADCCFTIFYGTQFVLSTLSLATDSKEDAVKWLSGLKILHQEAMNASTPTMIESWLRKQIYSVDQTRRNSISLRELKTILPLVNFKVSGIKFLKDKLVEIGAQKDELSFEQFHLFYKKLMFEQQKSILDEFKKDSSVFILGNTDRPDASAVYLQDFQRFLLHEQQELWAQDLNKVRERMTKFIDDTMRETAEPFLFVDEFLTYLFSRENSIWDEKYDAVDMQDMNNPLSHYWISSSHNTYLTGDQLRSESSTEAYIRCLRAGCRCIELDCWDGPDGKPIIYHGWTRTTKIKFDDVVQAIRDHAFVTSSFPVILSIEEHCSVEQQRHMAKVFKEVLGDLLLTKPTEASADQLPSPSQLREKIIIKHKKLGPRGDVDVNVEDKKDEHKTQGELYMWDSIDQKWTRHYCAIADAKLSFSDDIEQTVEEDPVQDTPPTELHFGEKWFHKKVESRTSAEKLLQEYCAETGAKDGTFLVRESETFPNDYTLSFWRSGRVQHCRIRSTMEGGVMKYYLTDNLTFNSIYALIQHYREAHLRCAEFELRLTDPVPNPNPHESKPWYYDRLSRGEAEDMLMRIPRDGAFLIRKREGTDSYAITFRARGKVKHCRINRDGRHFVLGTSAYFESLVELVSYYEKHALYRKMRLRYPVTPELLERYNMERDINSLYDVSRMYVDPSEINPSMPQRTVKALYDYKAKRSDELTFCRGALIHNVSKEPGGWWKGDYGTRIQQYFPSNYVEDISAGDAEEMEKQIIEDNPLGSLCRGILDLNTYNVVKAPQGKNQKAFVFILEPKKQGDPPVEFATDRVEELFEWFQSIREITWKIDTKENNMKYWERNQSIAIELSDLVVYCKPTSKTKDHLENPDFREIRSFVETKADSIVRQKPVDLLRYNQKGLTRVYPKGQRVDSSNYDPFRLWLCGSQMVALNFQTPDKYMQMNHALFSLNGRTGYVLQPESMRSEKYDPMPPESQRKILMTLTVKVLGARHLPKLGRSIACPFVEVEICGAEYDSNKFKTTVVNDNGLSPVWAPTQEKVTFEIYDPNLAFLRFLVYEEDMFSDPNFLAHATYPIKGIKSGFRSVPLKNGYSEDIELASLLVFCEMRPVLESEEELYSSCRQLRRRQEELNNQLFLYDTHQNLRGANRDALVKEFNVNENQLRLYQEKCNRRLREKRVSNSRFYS

RBL-2H3 [3] = test: Inhibition of p38 phosphorylation in DNP-BSA-stimulated rat RBL2H3 cells by Western blotting; format: cell-based
RBL-2H3 [4] = test: Antiallergic activity in IgE-sensitized DNP-BSA-stimulated rat RBL2H3 cells assessed as decrease in intracellular Ca2+ level by fluorimetry; format: functional, cell-based
RBL-2H3 [5] = test: Antioxidant activity in IgE-sensitized rat RBL2H3 cells assessed as reduction in DNP-BSA-mediated intracellular ROS production at 50 uM after 30 mins by fluorimetry; format: functional, cell-based
RBL-2H3 [6] = test: Antiallergic activity in IgE-sensitized rat RBL2H3 cells assessed as inhibition of DNP-BSA-stimulated beta hexaminidase release relative to control; format: functional, cell-based
[7] = target: T2, 1-phosphatidylinositol 4,5-bisphosphate phosphodiesterase gamma-1 (Rattus norvegicus) (UniProt P10686); test: Inhibition of PLCgamma1 phosphorylation in DNP-BSA-stimulated rat RBL2H3 cells by Western blotting; format: cell-based; conditions: RBL-2H3
T2 sequence (whole entry): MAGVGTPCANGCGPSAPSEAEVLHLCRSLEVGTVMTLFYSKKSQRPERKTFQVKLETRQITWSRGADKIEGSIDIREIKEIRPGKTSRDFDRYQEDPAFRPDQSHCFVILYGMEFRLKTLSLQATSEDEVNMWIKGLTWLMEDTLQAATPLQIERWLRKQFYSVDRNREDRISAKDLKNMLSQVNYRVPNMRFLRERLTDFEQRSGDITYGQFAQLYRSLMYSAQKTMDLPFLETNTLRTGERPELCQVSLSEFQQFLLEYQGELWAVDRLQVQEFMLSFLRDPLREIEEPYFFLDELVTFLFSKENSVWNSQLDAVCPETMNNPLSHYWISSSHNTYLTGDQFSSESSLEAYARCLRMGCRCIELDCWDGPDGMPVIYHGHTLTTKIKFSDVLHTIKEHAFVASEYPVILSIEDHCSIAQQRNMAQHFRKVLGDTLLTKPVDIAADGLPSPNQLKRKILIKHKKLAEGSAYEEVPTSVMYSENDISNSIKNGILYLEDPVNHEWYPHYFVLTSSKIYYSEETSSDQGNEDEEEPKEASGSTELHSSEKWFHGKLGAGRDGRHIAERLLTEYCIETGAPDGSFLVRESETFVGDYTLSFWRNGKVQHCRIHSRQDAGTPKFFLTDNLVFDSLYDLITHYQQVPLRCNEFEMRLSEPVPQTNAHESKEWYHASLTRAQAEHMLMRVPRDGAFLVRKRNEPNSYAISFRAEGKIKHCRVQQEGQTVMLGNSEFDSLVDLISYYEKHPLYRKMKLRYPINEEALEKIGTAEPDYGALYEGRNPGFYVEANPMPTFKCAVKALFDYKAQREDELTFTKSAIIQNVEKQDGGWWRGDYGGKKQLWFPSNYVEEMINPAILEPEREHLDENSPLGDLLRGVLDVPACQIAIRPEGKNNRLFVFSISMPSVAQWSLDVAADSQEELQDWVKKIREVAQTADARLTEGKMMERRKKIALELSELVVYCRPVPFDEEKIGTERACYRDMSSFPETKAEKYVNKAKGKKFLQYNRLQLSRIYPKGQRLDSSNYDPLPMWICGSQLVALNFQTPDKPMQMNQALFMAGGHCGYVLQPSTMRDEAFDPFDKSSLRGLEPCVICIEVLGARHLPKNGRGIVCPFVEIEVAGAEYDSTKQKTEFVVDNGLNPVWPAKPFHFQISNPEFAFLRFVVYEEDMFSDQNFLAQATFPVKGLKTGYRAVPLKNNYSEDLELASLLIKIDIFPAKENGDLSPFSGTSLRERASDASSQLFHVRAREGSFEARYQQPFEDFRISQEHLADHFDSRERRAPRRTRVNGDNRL

RBL-2H3 [8] = test: Inhibition of ERK phosphorylation in DNP-BSA-stimulated rat RBL2H3 cells by Western blotting; format: cell-based
[9] = test system: Radical scavenging activity; test: Antioxidant activity assessed as radical DPPH scavenging activity; format: functional
[10] = target: Tyrosine-protein kinase SYK (Rattus norvegicus) (UniProt Q64725); test: Inhibition of Syk phosphorylation in DNP-BSA-stimulated rat RBL2H3 cells by Western blotting; format: cell-based; conditions: RBL-2H3
Chain of Tyrosine-protein kinase SYK (Rattus norvegicus) (Q64725 whole entry, looked up): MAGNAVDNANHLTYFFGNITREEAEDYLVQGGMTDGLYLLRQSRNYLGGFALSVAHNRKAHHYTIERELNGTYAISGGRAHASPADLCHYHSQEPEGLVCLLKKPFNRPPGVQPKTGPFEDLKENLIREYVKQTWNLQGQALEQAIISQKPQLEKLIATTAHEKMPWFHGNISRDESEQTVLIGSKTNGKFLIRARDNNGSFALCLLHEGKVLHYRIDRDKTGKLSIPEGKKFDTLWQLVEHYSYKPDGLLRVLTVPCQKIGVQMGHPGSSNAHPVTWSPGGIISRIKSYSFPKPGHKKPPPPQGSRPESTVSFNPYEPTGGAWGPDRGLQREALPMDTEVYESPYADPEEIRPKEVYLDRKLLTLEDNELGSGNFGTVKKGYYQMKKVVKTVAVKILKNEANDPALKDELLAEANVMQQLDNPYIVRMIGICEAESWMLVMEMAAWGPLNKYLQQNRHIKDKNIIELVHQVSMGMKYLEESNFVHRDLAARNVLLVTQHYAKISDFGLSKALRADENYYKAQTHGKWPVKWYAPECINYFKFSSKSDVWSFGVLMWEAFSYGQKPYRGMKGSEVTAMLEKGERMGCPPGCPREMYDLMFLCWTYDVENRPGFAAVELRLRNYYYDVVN

RBL-2H3 [11] = test: Antiallergic activity in IgE-sensitized rat RBL2H3 cells assessed as inhibition of A-23187-stimulated beta hexaminidase release relative to control; format: functional, cell-based
RBL-2H3 [12] = test: Inhibition of JNK phosphorylation in DNP-BSA-stimulated rat RBL2H3 cells by Western blotting; format: cell-based

Row | Compound | Activity (RBL-2H3 [1]) | Activity [2] | Activity (RBL-2H3 [3]) | Activity (RBL-2H3 [4]) | Activity (RBL-2H3 [5]) | inhibition (RBL-2H3 [6]) | Activity [7] | Activity (RBL-2H3 [8]) | ED50 [9] [µM] | Activity [10] | Activity (RBL-2H3 [11]) | Activity (RBL-2H3 [12])
1 | O=C(/C=C/c1ccc(O)cc1)OC[C@H]1O[C@@H](Oc2c(-c3ccc(O)cc3)oc3cc(O)cc(O)c3c2=O)[C@H](O)[C@@H](O)[C@@H]1O | Active | inactive | Active | Active | Active | Active | inactive | Active | < 100 | inactive | Active | Active
2 | O=c1c(O)c(-c2ccc(O)cc2)oc2cc(O)cc(O)c12 | Active | Active | Active | Active |  | Active | Active | Active | < 100 | Active | Active | Active
3 | O=C(O[C@@H]1Cc2c(O)cc(O)cc2O[C@@H]1c1cc(O)c(O)c(O)c1)c1cc(O)c(O)c(O)c1 |  | inactive |  |  |  |  | inactive |  | 7 | inactive |  | 
4 | O=C1O[C@H]([C@@H](O)CO)C(O)=C1O |  |  |  |  |  |  |  |  | 18 |  |  | 
5 | VITAMIN E |  |  |  |  |  |  |  |  | 78 |  |  | 
6 | O=C(/C=C/c1ccccc1)Oc1cc(O)c2c(=O)cc(-c3ccccc3)oc2c1 | Active | inactive | Active | Active | Active | Active | inactive | Active | < 100 | inactive | Active | Active
7 | O=c1cc(-c2ccccc2)oc2cc(O)cc(O)c12 |  | inactive | inactive | Active |  | Active | inactive | inactive | < 100 | inactive | Active | inactive
